Results as given in the NIST ThermoML archive (doi:10.1021/acs.jced.8b00513).
± gives the expanded uncertainty stated by the source.

Details: 101.33 kPa, Liquid, Vibrating tube method

SMILES: O [water]
- mass density (323.15 K): 988.035 ± 1 kg/m3
- mass density (328.15 K): 985.693 ± 1 kg/m3
- mass density (333.15 K): 983.196 ± 0.98 kg/m3
- mass density (338.15 K): 980.551 ± 0.98 kg/m3
- mass density (343.15 K): 977.765 ± 0.98 kg/m3
